Tests used:
Rho kinase 1 = Rho kinase 1 (Homo sapiens, UniProt Q13464); assay: In vitro Rho kinase inhibitory activity assay (ADP-Glo kit, Myelin Basic Protein substrate); assay type: biochemical; conditions: 10 μM ATP, 25° C., read-out: ROCK1 inhibitory activity (Ki, range of activity)
How it was run: (§1)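 ADP-Glo luminescence assay at 25 °C in 40 mM Tris pH 7.5, 20 mM MgCl2, 0.1 mg/ml BSA, 50 μM DTT, with 2.5 μM myelin basic protein, 10 μM ATP and 1% DMSO. Compound and ROCK1 or ROCK2 were preincubated 30 min, then reacted 1 h. IC50 came from a sigmoidal fit; Ki via Cheng-Prusoff.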

Rho kinase 2 = Rho kinase 2 (Homo sapiens, UniProt O75116); assay: as above; assay type: biochemical; conditions: 10 μM ATP, 25° C., read-out: ROCK2 inhibitory activity (Ki, range of activity)
How it was run: as §1

Sequence of Rho kinase 2 (O75116 whole entry): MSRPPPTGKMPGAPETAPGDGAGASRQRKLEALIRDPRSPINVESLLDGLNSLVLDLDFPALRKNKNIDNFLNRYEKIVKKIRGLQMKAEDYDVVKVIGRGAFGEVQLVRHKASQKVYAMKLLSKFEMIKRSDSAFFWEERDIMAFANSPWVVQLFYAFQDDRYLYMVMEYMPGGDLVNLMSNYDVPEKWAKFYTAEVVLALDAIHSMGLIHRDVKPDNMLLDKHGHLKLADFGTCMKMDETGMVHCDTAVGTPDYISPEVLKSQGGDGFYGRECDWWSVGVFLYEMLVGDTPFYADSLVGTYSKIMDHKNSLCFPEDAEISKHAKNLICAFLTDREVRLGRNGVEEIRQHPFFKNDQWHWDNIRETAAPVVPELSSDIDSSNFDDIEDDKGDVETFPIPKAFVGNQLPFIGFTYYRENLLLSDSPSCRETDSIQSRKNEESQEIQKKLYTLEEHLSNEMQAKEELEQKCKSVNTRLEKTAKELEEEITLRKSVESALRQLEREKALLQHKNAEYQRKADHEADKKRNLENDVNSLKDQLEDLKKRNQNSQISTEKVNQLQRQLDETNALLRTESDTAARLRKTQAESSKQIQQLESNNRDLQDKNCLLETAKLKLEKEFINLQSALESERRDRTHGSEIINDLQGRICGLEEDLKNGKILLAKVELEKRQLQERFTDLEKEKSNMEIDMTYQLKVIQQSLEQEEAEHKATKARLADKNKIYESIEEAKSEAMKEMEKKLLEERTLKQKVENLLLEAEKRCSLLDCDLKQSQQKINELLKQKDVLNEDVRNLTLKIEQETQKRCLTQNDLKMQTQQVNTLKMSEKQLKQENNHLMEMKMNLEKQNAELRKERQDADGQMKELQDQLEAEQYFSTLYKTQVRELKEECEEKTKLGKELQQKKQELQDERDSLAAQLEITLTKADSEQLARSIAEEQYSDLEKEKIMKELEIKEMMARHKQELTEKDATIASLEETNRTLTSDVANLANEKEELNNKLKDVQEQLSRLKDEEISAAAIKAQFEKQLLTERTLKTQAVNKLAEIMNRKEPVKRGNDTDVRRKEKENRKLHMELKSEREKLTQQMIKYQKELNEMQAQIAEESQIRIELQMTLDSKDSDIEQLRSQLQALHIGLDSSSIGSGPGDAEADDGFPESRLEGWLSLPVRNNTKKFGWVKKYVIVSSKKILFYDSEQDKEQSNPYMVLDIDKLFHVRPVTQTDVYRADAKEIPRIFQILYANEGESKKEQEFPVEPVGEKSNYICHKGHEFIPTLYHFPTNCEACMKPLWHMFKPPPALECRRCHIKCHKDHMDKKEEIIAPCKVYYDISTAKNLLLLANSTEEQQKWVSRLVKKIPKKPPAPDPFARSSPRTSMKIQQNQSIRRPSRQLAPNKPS
Sequence of Rho kinase 1 (Q13464 whole entry): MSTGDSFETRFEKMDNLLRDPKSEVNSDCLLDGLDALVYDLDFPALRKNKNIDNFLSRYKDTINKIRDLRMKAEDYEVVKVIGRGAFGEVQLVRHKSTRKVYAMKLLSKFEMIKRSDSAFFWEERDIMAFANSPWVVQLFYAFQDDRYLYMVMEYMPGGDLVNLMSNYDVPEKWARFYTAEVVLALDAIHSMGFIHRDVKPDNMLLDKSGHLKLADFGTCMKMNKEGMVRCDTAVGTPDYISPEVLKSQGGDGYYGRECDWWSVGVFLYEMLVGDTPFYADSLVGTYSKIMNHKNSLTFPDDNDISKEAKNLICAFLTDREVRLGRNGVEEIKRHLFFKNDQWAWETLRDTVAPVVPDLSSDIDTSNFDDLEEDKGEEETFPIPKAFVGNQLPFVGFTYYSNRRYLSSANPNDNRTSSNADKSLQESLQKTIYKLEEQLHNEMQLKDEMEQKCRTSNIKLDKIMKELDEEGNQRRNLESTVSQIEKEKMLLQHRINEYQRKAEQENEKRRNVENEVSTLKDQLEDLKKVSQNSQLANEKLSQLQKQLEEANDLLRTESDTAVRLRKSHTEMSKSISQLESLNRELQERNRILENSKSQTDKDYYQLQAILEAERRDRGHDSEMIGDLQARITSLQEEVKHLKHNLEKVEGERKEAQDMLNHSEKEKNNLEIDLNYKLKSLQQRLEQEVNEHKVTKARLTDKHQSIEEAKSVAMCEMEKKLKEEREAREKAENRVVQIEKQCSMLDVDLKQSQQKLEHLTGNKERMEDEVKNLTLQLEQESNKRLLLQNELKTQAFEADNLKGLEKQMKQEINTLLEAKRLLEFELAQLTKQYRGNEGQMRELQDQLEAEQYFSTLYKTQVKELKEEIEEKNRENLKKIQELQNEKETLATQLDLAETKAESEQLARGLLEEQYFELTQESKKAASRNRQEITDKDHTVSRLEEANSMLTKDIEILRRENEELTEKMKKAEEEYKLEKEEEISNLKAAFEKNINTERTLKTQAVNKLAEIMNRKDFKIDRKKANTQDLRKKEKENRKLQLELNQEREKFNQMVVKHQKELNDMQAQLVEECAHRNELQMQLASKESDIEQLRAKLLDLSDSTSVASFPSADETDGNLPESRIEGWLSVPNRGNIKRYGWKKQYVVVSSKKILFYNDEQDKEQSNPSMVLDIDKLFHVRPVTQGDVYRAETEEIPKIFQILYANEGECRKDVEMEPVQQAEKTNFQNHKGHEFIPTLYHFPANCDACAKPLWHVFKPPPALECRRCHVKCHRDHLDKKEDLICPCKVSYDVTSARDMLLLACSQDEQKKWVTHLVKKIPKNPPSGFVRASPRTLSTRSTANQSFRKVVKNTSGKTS

Row | Ki (Rho kinase 1) [nM] | Ki (Rho kinase 2) [nM] | Compound
1 | < 50 | < 50 | COCc1cc2n(n1)C(c1ccc(C(F)(F)F)cc1)C(C(=O)Nc1ccc3[nH]ncc3c1)=C(C)N2 (stereo not shown) [Example 35, N-(1H-indazol-5-yl)-2-(methoxymethyl)-5-methyl-7-(4-(trifluoromethyl)phenyl)-4,7-dihydropyrazolo[1,5-a]pyrimidine-6-carboxamide]
2 | > 500 | > 500 | CC1=C(C(=O)Nc2ccc3cnccc3c2)C(c2ccc(C(F)(F)F)c(F)c2)n2nc(C3CCN(C(=O)CCN4CCCCC4)CC3)cc2N1 (single isomer, unassigned) [135A]

Reference: US10584128B2, “Bicyclic dihydropyrimidine-carboxamide derivatives as Rho-Kinase inhibitors” (CHIESI FARMACEUTICI S.p.A., priority 2016, dated 2020)
